Data published in paper PMC5358098 (ACS chemical neuroscience, 2016).

Experiments:
CB1R [1] = target: CB1R (Homo sapiens, UniProt P21554); experiment: cell-based; type: cell-based; details: read-out: Emax (% cAMP inhibition), agonist alone
CB1R [2] = target: CB1R (Mus musculus, UniProt P47746)
Chain of CB1R (Mus musculus, UniProt P47746) (P47746 whole entry): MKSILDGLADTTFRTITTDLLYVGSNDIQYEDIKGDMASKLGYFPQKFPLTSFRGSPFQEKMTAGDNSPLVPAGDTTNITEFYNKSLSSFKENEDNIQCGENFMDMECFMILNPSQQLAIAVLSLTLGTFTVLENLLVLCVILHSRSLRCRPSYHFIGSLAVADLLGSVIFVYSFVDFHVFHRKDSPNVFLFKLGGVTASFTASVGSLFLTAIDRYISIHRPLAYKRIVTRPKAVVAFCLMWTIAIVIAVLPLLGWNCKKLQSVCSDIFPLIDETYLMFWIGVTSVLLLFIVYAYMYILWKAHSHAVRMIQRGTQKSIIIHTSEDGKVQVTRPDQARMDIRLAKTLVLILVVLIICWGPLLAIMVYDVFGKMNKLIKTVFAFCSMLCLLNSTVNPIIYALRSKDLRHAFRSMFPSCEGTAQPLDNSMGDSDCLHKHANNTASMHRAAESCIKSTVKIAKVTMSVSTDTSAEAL

Chain of CB1R (Homo sapiens, UniProt P21554) (P21554 whole entry): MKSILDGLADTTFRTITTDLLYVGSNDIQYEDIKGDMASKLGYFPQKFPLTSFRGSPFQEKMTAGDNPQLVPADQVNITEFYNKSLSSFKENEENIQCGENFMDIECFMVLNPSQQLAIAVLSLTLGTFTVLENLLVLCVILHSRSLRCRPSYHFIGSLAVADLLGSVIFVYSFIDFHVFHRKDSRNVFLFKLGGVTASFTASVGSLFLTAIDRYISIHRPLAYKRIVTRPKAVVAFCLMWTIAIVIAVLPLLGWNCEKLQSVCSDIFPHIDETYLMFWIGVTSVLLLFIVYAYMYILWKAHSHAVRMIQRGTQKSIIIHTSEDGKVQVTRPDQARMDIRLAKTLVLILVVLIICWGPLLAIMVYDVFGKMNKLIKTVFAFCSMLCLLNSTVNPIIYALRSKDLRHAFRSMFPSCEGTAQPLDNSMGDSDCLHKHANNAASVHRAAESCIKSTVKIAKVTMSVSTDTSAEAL

## CCCCCCC(C)(C)c1ccc([C@@H]2C[C@H](O)CC[C@H]2CCCO)c(O)c1 [CP55,940, 2-[(1R,2R,5R)-5-hydroxy-2-(3-hydroxypropyl)cyclohexyl]-5-(2-methyloctan-2-yl)phenol]
CB1R [1]
  Emax: 106 ± 11.4%
CB1R [2]
  CB1R internalization, agonist alone: sustained CB1R internalization beginning at 30 min
